# Test results: PubChem BioAssay AID1918999 (Molecular Pharmacology Branch, DTP, NCI, 2023)
# “And” between values parts separate entries of the source, which are not always exact repeats. Equal entries are not always repeated.
# System: 556581-035-R-J1-PDC complex spheroid growth
# Assay: Anticancer human tumor 556581-035-R-J1-PDC patient-derived ovarian carcinoma cell line growth inhibition [AhR]
# Conditions: for viability, T/C: stronger effect = lower value
# Text: Multicellular complex tumor spheroid response to aryl hydrocarbon receptor antagonists in combination with a variety of drugs and investigational agents in selected tumor cell lines
# The current study was undertaken to assess response to aryl hydrocarbon receptor antagonists in combination with standard-of-care drugs and investigational agents in solid tumor complex spheroid models. Complex spheroids include a stromal component modeled by human endothelial cells (HUVEC) and fibroblasts modeled by human mesenchymal stem cells (MSCs). The concentration ranges selected for each drug and investigational agent were based upon clinically achievable concentrations if the clinical Cmax of the agent was known.
# Compounds. The drugs and investigational agents: BAY 2416964 (NSC825713), GNF351 (NSC835774), CH-223191 (NSC835775), CPI-455 (NSC825282), aza-TdCyd (NSC777586), decitabine (NSC127716), belinostat (NSC758774), entinostat (NSC756642), pevonedistat (NSC761192), tazemetostat (NSC777109), talazoparib (NSC765396), olaparib (NSC753686), selinexor (NSC780203), nedisertib (M3814, NSC802822), bortezomib (NSC756655), venetoclax (NSC766270), doxorubicin (NSC123127), elimusertib (BAY189344, NSC800525), ceralasertib (AZD6738, NSC777638), TAK-243 (NSC785004), alisertib (NSC759677), etoposide (NSC141540), topotecan (NSC609699), eribulin (NSC707389), gemcitabine (NSC613327), carboplatin (NSC241240), cisplatin (NSC119875), and SN-38 (NSC673596) were obtained from the National Cancer Institute (NCI) Developmental Therapeutics Program Chemical Repository (32). The FDA-approved anticancer drug set is available from the Developmental Therapeutics Program at https://dtp.cancer.gov/organization/dscb/obtaining/available plates.htm. […] The stock solutions were prepared in dimethyl sulfoxide (DMSO, Sigma-Aldrich, St. Louis, MO, cat. D2650), except for the platinum compounds which were prepared in saline (Quality Biological, Gaithersburg, MD, cat. 114-055-101), at 800-fold the tested concentration and stored at -70 degrees C prior to their use. All drugs and investigational agents were tested over a range starting from a high concentration at or near the clinical Cmax and decreasing in half-log increments. If the clinical Cmax for an agent had not been determined, the highest concentration tested was 10 microM (Table 1).
# Cell Culture. All cells were maintained in an incubator at 37 degrees C and 5% CO2 with 95% humidity. The PDC lines were cultured according to standard operating procedures established by the NCI PDMR (https://pdmr.cancer.gov). Briefly, all PDCs were thawed and cultured in Matrigel-coated flasks prepared with a working solution of 1X Ham's F-12 nutrient mix, without supplementation (Invitrogen, Waltham, MA, cat. 11765054), 100 U/mL penicillin-streptomycin (Invitrogen, cat. 15140122), and 2.5% Matrigel (Corning Inc., Corning, NY, cat. 354248) for the first three passages. All PDCs were cultured in complete DMEM/F-12 media containing advanced DMEM/F-12 (Invitrogen, cat. 12634028), 4.9% defined fetal bovine serum, heat inactivated (HyClone Laboratories Inc., Logan, UT, cat. SH30070.03HI), 389 ng/mL hydrocortisone (Sigma-Aldrich, cat. H4001), 9.7 ng/mL human EGF recombinant protein (Invitrogen, cat. PHG0313), 23.4 microg/mL adenine (Sigma-Aldrich, cat. A2786), 97.3 U/mL penicillin-streptomycin (Invitrogen, cat. 15140122), 1.9 mM L-glutamine (Invitrogen, cat. 25030081), and 9.7 microM Y-27632 dihydrochloride (Tocris Bioscience, Bristol, United Kingdom, cat. 1254). The PDCs were cultured in complete DMEM/F12 media without 10 microM Y-27632 dihydrochloride for at least two passages prior to the screen. The established cell lines NCI-H1341 and […] were cultured in DMEM/F-12, HEPES (Invitrogen, cat. 11330032), 5% defined fetal bovine serum (HyClone Laboratories Inc., cat. SH30070.03), ITS premix universal culture supplement [insulin (5 microg/mL), transferrin (5 microg/mL), and selenious acid (5 ng/mL)] […]
# [1] = curve of first compound, second compound 0.1 µM
# [2] = curve of first compound, second compound 0.316 µM
# [3] = curve of first compound, second compound 1 µM
# [4] = curve of first compound, second compound 3.16 µM
# [5] = curve of first compound, second compound 10 µM
# [6] = second compound 0.1 µM, first compound 0.00316 µM
# [7] = second compound 0.1 µM, first compound 0.01 µM
# [8] = second compound 0.1 µM, first compound 0.0316 µM
# [9] = second compound 0.1 µM, first compound 0.1 µM
# [10] = second compound 0.316 µM, first compound 0.00316 µM
# [11] = second compound 0.316 µM, first compound 0.01 µM
# [12] = second compound 0.316 µM, first compound 0.0316 µM
# [13] = second compound 0.316 µM, first compound 0.1 µM
# [14] = second compound 1 µM, first compound 0.00316 µM
# [15] = second compound 1 µM, first compound 0.01 µM
# [16] = second compound 1 µM, first compound 0.0316 µM
# [17] = second compound 1 µM, first compound 0.1 µM
# [18] = second compound 3.16 µM, first compound 0.00316 µM
# [19] = second compound 3.16 µM, first compound 0.01 µM
# [20] = second compound 3.16 µM, first compound 0.0316 µM
# [21] = second compound 3.16 µM, first compound 0.1 µM
# [22] = second compound 10 µM, first compound 0.00316 µM
# [23] = second compound 10 µM, first compound 0.01 µM
# [24] = second compound 10 µM, first compound 0.0316 µM
# [25] = second compound 10 µM, first compound 0.1 µM
# [26] = second compound 0.1 µM, first compound 0.316 µM
# [27] = second compound 0.1 µM, first compound 1 µM
# [28] = second compound 0.316 µM, first compound 0.316 µM
# [29] = second compound 0.316 µM, first compound 1 µM
# [30] = second compound 1 µM, first compound 0.316 µM
# [31] = second compound 1 µM, first compound 1 µM
# [32] = second compound 3.16 µM, first compound 0.316 µM
# [33] = second compound 3.16 µM, first compound 1 µM
# [34] = second compound 10 µM, first compound 0.316 µM
# [35] = second compound 10 µM, first compound 1 µM
# 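Wherever viability, T/C is given: compound exposure lasted 7 days; 100% = DMSO vehicle control growth.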
compound,measurement,setting,value
O=C(c1cc(Cc2n[nH]c(=O)c3ccccc23)ccc1F)N1CCN(C(=O)C2CC2)CC1,"viability, T/C",compound 0.0316 µM,100% and 98.6% and 97.2%
same,"viability, T/C",compound 0.1 µM,103% and 96.9% and 88.5%
same,"viability, T/C",compound 0.316 µM,95.3% and 93.3% and 86.6%
same,"viability, T/C",compound 1 µM,102% and 93.8% and 87.4%
same,"viability, T/C",compound 3.16 µM,94.5% and 91.3% and 93.1%
same,"viability, T/C",compound 10 µM,74.8% and 82.6% and 69.8%
same,IC50,curve of compound,> 10000 nM
CC[C@@]1(O)C(=O)OCc2c1cc1n(c2=O)Cc2cc3c(CN(C)C)c(O)ccc3nc2-1 + Cc1ccccc1N=Nc1ccc(NC(=O)c2ccnn2C)c(C)c1,IC50,[1],> 100 nM
same,IC50,[2],> 100 nM
same,IC50,[3],> 100 nM
same,IC50,[4],> 100 nM
same,IC50,[5],> 100 nM
same,"viability, T/C","second compound 0.1 µM, first compound 0.000316 µM",94.8%
same,"viability, T/C","second compound 0.1 µM, first compound 0.001 µM",98.5%
same,"viability, T/C",[6],91.5%
same,"viability, T/C",[7],82.3%
same,"viability, T/C",[8],70.4%
same,"viability, T/C",[9],50.6%
same,"viability, T/C","second compound 0.316 µM, first compound 0.000316 µM",108%
same,"viability, T/C","second compound 0.316 µM, first compound 0.001 µM",104%
same,"viability, T/C",[10],92.6%
same,"viability, T/C",[11],73.7%
same,"viability, T/C",[12],69.1%
same,"viability, T/C",[13],54.9%
same,"viability, T/C","second compound 1 µM, first compound 0.000316 µM",101%
same,"viability, T/C","second compound 1 µM, first compound 0.001 µM",93.7%
same,"viability, T/C",[14],84.7%
same,"viability, T/C",[15],79.1%
same,"viability, T/C",[16],65%
same,"viability, T/C",[17],60.3%
same,"viability, T/C","second compound 3.16 µM, first compound 0.000316 µM",81.3%
same,"viability, T/C","second compound 3.16 µM, first compound 0.001 µM",83%
same,"viability, T/C",[18],83.4%
same,"viability, T/C",[19],72%
same,"viability, T/C",[20],62.9%
same,"viability, T/C",[21],53.1%
same,"viability, T/C","second compound 10 µM, first compound 0.000316 µM",89.2%
same,"viability, T/C","second compound 10 µM, first compound 0.001 µM",91.4%
same,"viability, T/C",[22],91.1%
same,"viability, T/C",[23],69%
same,"viability, T/C",[24],64.7%
same,"viability, T/C",[25],55.1%
CCc1c2c(nc3ccc(O)cc13)-c1cc3c(c(=O)n1C2)COC(=O)[C@]3(O)CC,"viability, T/C",compound 0.000949 µM,89.1% and 96% and 90.5%
same,"viability, T/C",compound 0.003 µM,75% and 95% and 73.6%
same,"viability, T/C",compound 0.00949 µM,54.5% and 61% and 53.9%
same,"viability, T/C",compound 0.03 µM,39.9% and 46% and 40.5%
same,"viability, T/C",compound 0.0949 µM,17.3% and 25.3% and 22.7%
same,"viability, T/C",compound 0.3 µM,10.3% and 15.8% and 10.7%
same,IC50,curve of compound,13.6 nM and 21.3 nM and 13.7 nM
CC1COCCN1c1cc(-c2ccnn2C)c2ccnc(-c3ccn[nH]3)c2n1 (centres undefined) + Cc1cncc(-c2nc(NCCc3c[nH]c4ccccc34)c3ncn(C(C)C)c3n2)c1,IC50,[1],621 nM
same,IC50,[2],518 nM
same,IC50,[3],796 nM
same,IC50,[4],760 nM
same,IC50,[5],877 nM
same,"viability, T/C",[6],99.4%
same,"viability, T/C",[7],96.1%
same,"viability, T/C",[8],89.8%
same,"viability, T/C",[9],82.2%
same,"viability, T/C",[26],62.8%
same,"viability, T/C",[27],40.5%
same,"viability, T/C",[10],98.2%
same,"viability, T/C",[11],104%
same,"viability, T/C",[12],93.2%
same,"viability, T/C",[13],83%
same,"viability, T/C",[28],55.6%
same,"viability, T/C",[29],41.9%
same,"viability, T/C",[14],100%
same,"viability, T/C",[15],102%
same,"viability, T/C",[16],101%
same,"viability, T/C",[17],83.8%
same,"viability, T/C",[30],57.4%
same,"viability, T/C",[31],48%
same,"viability, T/C",[18],101%
same,"viability, T/C",[19],95.1%
same,"viability, T/C",[20],88.6%
same,"viability, T/C",[21],75.7%
same,"viability, T/C",[32],62.4%
same,"viability, T/C",[33],46.2%
same,"viability, T/C",[22],77.6%
same,"viability, T/C",[23],71.9%
same,"viability, T/C",[24],71.4%
same,"viability, T/C",[25],64.3%
same,"viability, T/C",[34],57.7%
same,"viability, T/C",[35],49%
CC(C)c1c(-c2ccccc2)nc2c(C#N)c[nH]n2c1=O + Cc1cncc(-c2nc(NCCc3c[nH]c4ccccc34)c3ncn(C(C)C)c3n2)c1,IC50,[1],> 10000 nM
same,IC50,[2],> 10000 nM
same,IC50,[3],> 10000 nM
same,IC50,[4],> 10000 nM
same,IC50,[5],> 10000 nM
same,"viability, T/C",[8],110%
same,"viability, T/C",[9],106%
same,"viability, T/C",[26],102%
same,"viability, T/C",[27],103%
same,"viability, T/C","second compound 0.1 µM, first compound 3.16 µM",108%
same,"viability, T/C","second compound 0.1 µM, first compound 10 µM",88.5%
same,"viability, T/C",[12],106%
same,"viability, T/C",[13],110%
same,"viability, T/C",[28],96.9%
same,"viability, T/C",[29],108%
same,"viability, T/C","second compound 0.316 µM, first compound 3.16 µM",95.6%
same,"viability, T/C","second compound 0.316 µM, first compound 10 µM",96.3%
same,"viability, T/C",[16],97.4%
same,"viability, T/C",[17],107%
same,"viability, T/C",[30],114%
same,"viability, T/C",[31],102%
same,"viability, T/C","second compound 1 µM, first compound 3.16 µM",91.8%
same,"viability, T/C","second compound 1 µM, first compound 10 µM",102%
same,"viability, T/C",[20],98.6%
same,"viability, T/C",[21],104%
same,"viability, T/C",[32],99.2%
same,"viability, T/C",[33],92.7%
same,"viability, T/C","second compound 3.16 µM, first compound 3.16 µM",95.5%
same,"viability, T/C","second compound 3.16 µM, first compound 10 µM",90.5%
same,"viability, T/C",[24],76.5%
same,"viability, T/C",[25],84%
same,"viability, T/C",[34],90%
same,"viability, T/C",[35],71.1%
same,"viability, T/C","second compound 10 µM, first compound 3.16 µM",68.2%
same,"viability, T/C","second compound 10 µM, first compound 10 µM",70.7%
